Measured values: article PMC6382874, “Succinylation-dependent mitochondrial translocation of PKM2 promotes cell survival in response to nutritional stress” (Cell Death & Disease, 2019)
Read-outs that look alike come from different tables or passages of the source.

Tests used:
H1299 cells = test: cell viability test, H1299; type: cell-based; conditions: cell viability, 48 h, read-out: IC50 (H1299)
Experimental: (§1) We assessed the anti-tumor effects of compound 8 by evaluation of cancer cell viability. Compound 8 reduced cell viability with an IC50 of about 5 µM in MTT reduction assays in HCT116, MCF7, and H1299 cells (Table 2). […] To determine whether cancer cell death brought about by compound 8 is PKM2 dependent, PKM2 was knocked down in HCT116 cells using two different shRNA sequences that specifically targeted exon 10 without interfering with PKM1 expression. Compound 8 is an inhibitor which causes a loss of function of PKM2. If PKM2 is a specially targeted by compound 8, its knockdown should render cells more vulnerable to compound 8-mediated PKM2 inhibition since shRNA and compound 8 work synergistically by reducing the intracellular drug target concentration.
Cells were seeded in 96-well plates at 5000 cells/well in DMEM media overnight. Cells were treated with different concentrations of test compound for 48 h at 37 °C in 5% CO2. Cell viability was assayed with the MTS assay (Promega) and trypan blue staining according to the manufacturer’s instructions.

[1] = test system: PKM2 knockdown HCT116 cells; test: annexin v stain apoptosis assay in PKM2 knockdown cells; type: cell-based, human; conditions: 20 µM, 12 h
From the text: Fig. 5 Identification and characterization of PKM2 inhibitors. a PKM2 inhibitors. […] It prints only the data set name 'Data: pkm2_NDH', so the substance label is left empty. / Panel b, N: small print, 0.941 ±0.0712, digits uncertain / Panel b, K: small print, 8.63E4 ±3.63E4, the digits 8, 6 and 3 are uncertain / Panel b, ΔH: small print, -5962 ±675.9, the digits 5, 9 and 6 are uncertain / Panel b, ΔS: small print, 2.59, the digits 5 and 9 are uncertain
as §1
Two shRNAs with PKM2 specific exon 10 sequence knockdown were used (5'-[…]-3'; 5'-[…]-3'), and a shRNA with no effect on PKM2 levels was employed as a control (5'-[…]-3). […]

[2] = test system: PKM2 mitochondrial translocation; test: PKM2 mitochondrial translocation (fractionation, western blot) in HCT116 cells; type: cell-based, human; conditions: 20 μM, glucose starvation, HCT116
Experimental: (§2) Fig. 6 Compound 8 blocks PKM2 mitochondrial translocation under nutritional stress and inhibits tumor growth in vivo. a Compound 8 blocks glucose starvation induced PKM2 mitochondrial translocation. Isolation of mitochondria and immunoblot of PKM2, tubulin and Tom 40 were carried out with or without compound 8 treatment. b Compound 8 disrupts interaction of PKM2 and VDAC3. HCT116 cells were transfected with HA-tagged PKM2, cells were harvested and subjected to stag pull down after 8 h 20 µM compound 8 treatment. c Compound 8 induces VDAC3 for degradation. cells were harvested and evaluated VDAC3 protein levels after 8 h 10 or 20 µM compound 8 treatment. d, e Compound 8 caused a decrease in the rate of NADH oxidation. After 8 h of treatment with 20 µM compound 8, HCT116 cells mitochondria were isolated for NADH oxidation assays. NAD/NADH ratios in HCT116 cell lysates were evaluated by LC–MS. f Compound 8 inhibited ATP production in HCT116 cells. g The tumor volume (n = 7) of HCT116 xenografts from mice with intraperitoneal injection of compound 8 and vehicle control
HCT116 cells were harvested and washed two times with cold PBS. Cells were then homogenized in a buffer (220 mM mannitol, 70 mM sucrose, 2 mM EGTA, 5 mM MOPS-Tris pH 7.4, 2 mM Taurine, 0.2% BSA). The homogenate was spun for 5 min at 800g.The supernatant containing the cytoplasmic and mitochondrial fractions were transferred to a fresh tube and spun for 5 min at 12,000g. The pellet contained the mitochondrial fraction and the supernatant contained the cytoplasmic fraction.
Cells were lysed in buffer containing 50 mM Tris pH8.0, 2 mM EDTA, 150 mM NaCl, 0.5% Nonidet P-40, 10% glycerol and protease inhibitor PMSF. Western blot analysis was carried out based on standard methods. The following commercial antibodies were used as probes: anti-Flag antibody (Sigma, F3165), anti-HA antibody (Sigma, H3663), anti-α-Tubulin (EasyBio, BE0026–100), anti-PKM2 (RuiYingBio, RLT3777), anti-TOM 40 (Santa Cruz sc-365467), anti-succinyllysine antibody (PTM BIO PTM-901), anti-GAPDH (SanJian).

VDAC3 = VDAC3 protein level (western blot) in HCT116 cells; type: cell-based, human; conditions: 10 or 20 µM, 8 h
From the text: HCT116 cell lysates were subject to immunoprecipitation with control IgG and anti-VDAC3 antibodies. d, e In vitro binding assay of purified His-tagged-PKM2 and GST-tagged-VDAC3. f K433E enhanced the interaction of PKM2 and VDAC3. Stagged-WT PKM2, a succinylation mimic K433E and a succinylation null mutant K433R and flag-VDAC3 were co-transfected into HCT116 cells for Stag bead pull down that specially pulls down Stagged proteins. g Glucose starvation enhanced the interaction of PKM2 and VDAC3. […]
as §2, with “Isolation of mitochondria and immunoblot of PKM2, tubulin and Tom 40 were carried out with or without compound 8 treatment. b Compound 8 disrupts interaction of PKM2 and VDAC3.” left out, “After 8 h of treatment with 20 µM compound 8, HCT116 cells mitochondria were isolated for NADH oxidation assays.” left out, “control […]” for “control”

CCCN(CCC)P(N)(=O)OCC1=CC(=O)c2ccccc2C1=O (centres unmarked) [Compound 8]
IC50 (H1299 cells; Homo sapiens, NCI-H1299, 48 h): ~5 µM
IC50 (H1299 cells): 4.75 ± 1.15 µM
apoptosis of PKM2 knockdown cells [1]: increased the apoptosis of PKM2 knockdown cells
PKM2 mitochondrial translocation [2]: can restrain PKM2 mitochondrial translocation
VDAC3 protein level (VDAC3): caused VDAC3 degradation
